The values below come from patent US7442788B2, “Antisense molecules and method of controlling expression of gene function by using the same” (Japan Science and Technology Corporation, priority 2001, dated 2008).

Data set [1] can be described thus: Circular dichroism (CD) spectrum, molar ellipticity at about 270 nm as measure of base moiety orientation (syn/anti). In kind it is physicochemical. The note with it: for Δ[θ]ext: phosphate buffer minus borate buffer; for change of [θ]ext / CD peak from phosphate buffer to borate buffer (borax): phosphate vs borate buffer. From the text: The molar ellipticity ([θ]max) at about 270 nm in the CD spectrum of a nucleoside reflects two factors, namely the orientation of the base moiety to the furanose moiety and the puckering of the furanose ring. It is known that the molar ellipticity at about 270 nm markedly decreases in the syn orientation as compared with the anti orientation. […]
[…] […] The rate of syn orientation induction in Urd in the presence of boric acid was smaller as compared with IPU but this can be explained by the presence of an equilibrium between the borate ester formation and the dissociation.
Specifically, CD spectra were measured with Urd, 5′-aminouridine (5′-NH2-Urd) and 5′-aminoisopropylideneuridine (5′-NH2-IPU) in phosphate buffer (pH 7.2) and with 5′-NH2-Urd in borate buffer (pH 7.2) for the investigation of uracil moiety orientations. […] This is presumably due to a syn orientation-inducing effect of hydrogen bond formation between the oxygen atom of the 2-position carbonyl group of the nucleoside base moiety and the 5′-position amino hydrogen atom. Under the measurement conditions in this case, the 5′-position amino group of 5′-NH2-Urd occurs in an ammonium ion state and presumably serves as a good hydrogen bond donor. […] This is probably due to two synergistic effects, namely the fixation of the sugar moiety to the 2′,3′-planar structure and the hydrogen bond formation between the 5′-position amino group and the 2-position carbonyl group of the base moiety.
Then, on the supposition that Urd in phosphate buffer ([θ]max value=9700) is in an ideal 100% anti orientation and 5′-NH2-IPU in phosphate buffer ([θ]max value=1200) in an ideal 100% syn orientation, the orientations of the base moiety (uracil) of uridine and uridine derivatives (5′-NH2-Urd, IPU, 5′-NH2-IPU) were evaluated under different conditions (in phosphate buffer, in borate buffer).

Another data set relates to 5′-d(AAAAACCA)-3′. In words: Melting temperature (Tm) of PRNA (octamer)-DNA hybrid by UV absorbance change. The following applies: binding target 5′d(AAAAACCA)3′. The protocol:
(§1) Specifically, the PRNA (octamer NH2-UIIUUUUU-Lys-OH) was mixed with each of oligonucleotide octamers specified in Table 6, the melting temperature (Tm) was determined by measuring the resulting change in absorbance on UV spectra, and the ability of the PRNA (octamer) to hybridize with the nucleic acid (complex forming ability) was evaluated based on the resultant melting temperature. Furthermore, the effects of a borate on the PRNA (octamer)-DNA hybrid formation and the stability thereof were investigated using the PRNA (octamer) and 5′-d(AAAAACCA)-3′, a complementary compound as its binding target oligonucleotide, and measuring the melting temperatures with and without addition of borax (20 mM) to the phosphate buffer and comparing them. A control experiment was carried out in the same manner using 5′-d(ACCAAAAA)-3′ as the binding target oligonucleotide in lieu of 5′-d(AAAAACCA)-3′.

A further data set concerns 5′-d(ACCAAAAA)-3′. In words: Melting temperature (Tm) of PRNA (octamer)-DNA hybrid by UV absorbance change, control experiment. The data set is classed as binding. The following applies: for Tm: binding target 5′d(ACCAAAAA)3′. The protocol:
as §1

The nature of data set [2]: Association constant with boric acid from CD peak decrement against borax/boric acid concentration, curve fitting. In kind it is binding. The protocol: However, there is no direct evidence as yet that this change in base moiety orientation is induced by borate ester bond formation. Therefore, the dependency of the change in base moiety orientation on the concentration of borax (Na2B4O7) was investigated at pH 7.2. […] The association constant of 5′-NH2-Urd with boric acid was determined by plotting the decrement in peak height against the boric acid (borax) concentration, followed by curve fitting. Supposing that borax give 4 equivalents of boric acid in aqueous solution, the association constant of 5′-NH2-Urd with boric acid was calculated at 75 M^−1.
In addition to the above-mentioned borax, boric acid (B(OH)3) was also used and the addition test was carried out in the same manner. In this case, too, decreases in peak height were observed, and the association constant was calculated at 49 M^−1. In addition, changes in orientation due to ester formation were also observed with methylboric acid and phenylboric acid.
As is evident from FIG. 8a, almost the same change as that attained by addition of 50 mM of borax at pH 7.2 was obtained at pH 8.8 only by addition of 2 mM of borax. […] The association constant 5′-NH2-Urd with boric acid was calculated at 600 M^−1, which is greater by one order than at pH 7.2.

The subject of data set [3] is polyadenylic acid (poly(A)). The data set can be described thus: Complex formation by continuous absorbance (260 nm) plotting, control by borax and sugars. In kind it is binding. The protocol: Therefore, poly(Nγ-(5′-deoxy-5′-uridyl)-L-glutamine) PRNA1 (Production Example 1) was examined for its complex forming ability using polyadenylic acid (poly(A)) as its complementary strand. […] Then, borax was added to this PRNA1- and poly(A)-containing phosphate buffer solution, whereupon the absorbance (260 nm) increased in a concentration-dependent manner until a certain concentration, as shown by the plots ▪ in FIG. 20(a). Upon addition of borax in an amount about 3 times the amount of the PRNA1, the absorbance (260 nm) increased to be the original absorbance prior to addition of poly(A). […] Furthermore, this borate ester was in equilibrium with its anionic form even at pH 7.2.

The test system of the next data set is d(A)12. The data set can be described thus: Melting temperature (Tm) of dodecameric chimera nucleic acid with complementary DNA. The data set is classed as binding. The protocol:
Using the above dodecameric chimera nucleic acid and a DNA having a complementary base sequence, the melting temperature Tm was measured in phosphate buffer allowing predominance of the anti orientation in the PRNA moiety.

[4] abbreviates: phosphate buffer (pH 7.2), no borax, Urd = 100% anti, 5′-NH2-IPU = 100% syn supposed.

“And” between values parts separate entries of the source, which are not always exact repeats. Identical values can stand only once.

Take Boc-isoGln(5′U)-isoGln(5′U)-OH [U-U]: the figures for the Molar ellipticity ([θ]ext) at about 270 nm in data set [1] (borate buffer (pH 7.2)) and in data set [1] (phosphate buffer (pH 7.2)) were 1250 deg·cm2/dmol and 12300 deg·cm2/dmol, respectively. For the same compound, the “Δ[θ]ext” value in data set [1] came out at 11050.
Regarding “5′-aminoisopropylideneuridine [5′-NH2-IPU, reference compound]”, the “[θ]max” value in data set [1] (phosphate buffer (pH 7.2)) turned out to be 1200 deg cm^2dmol^−1. Also, in data set [1] (setting [4]), the “proportion of syn orientation of the base moiety” value is on record as 100 % syn.
“NH2-isoGln(5′U)-isoGln(5′I)-isoGln(5′I)-isoGln(5′U)-isoGln(5′U)-isoGln(5′U)-isoGln(5′U)-isoGln(5′U)-Lys-OH [NH2UIIUUUUU-Lys-OH]”: in data set [1], the “change of [θ]ext / CD peak from phosphate buffer to borate buffer (borax)” value (shortened to “change of [θ]ext / CD peak”) is recorded as “marked decrease”. Besides, the Tm in the data set on 5′-d(AAAAACCA)-3′ (20 mM borax) is less than 0 °C; with 5′-d(AAAAACCA)-3′ (20 mM borax, listed as PRNA (octamer)), “lower than 0 °C”; in the data set on 5′-d(AAAAACCA)-3′ (no additive, 1/30 M phosphate buffer), 7.8 °C; in the data set with 5′-d(ACCAAAAA)-3′ (20 mM borax), less than 0 °C; in the data set on 5′-d(ACCAAAAA)-3′ (no additive) it was 6.2 °C. The “lowering of Tm with 5′-d(ACCAAAAA)-3′ in lieu of 5′-d(AAAAACCA)-3′” value in the data set with 5′-d(ACCAAAAA)-3′ (no additive) was 1.6 °C.
Turning to `Cc1cn([C@H]2C[C@H](O)[C@@H](CN)O2)c(=O)[nH]c1=O` [5′-NH2-Thd [A], 5′-amino-5′-deoxythymidine, reference compound], the Molar ellipticity ([θ]ext) at about 270 nm in data set [1] (borate buffer (pH 7.2)) stood at 950 deg·cm2/dmol; in data set [1] (phosphate buffer (pH 7.2)), 600 deg·cm2/dmol. In data set [1], the “Δ[θ]ext” value was −350.
Take `NC[C@H]1O[C@@H](n2ccc(=O)[nH]c2=O)[C@H](O)[C@@H]1O` [5′-NH2-Urd, 5′-amino-5′-deoxyuridine]: the “proportion of syn orientation of the base moiety” value is 83 % syn in data set [1] (8 mM borax added, phosphate buffer pH 7.2); 58 % syn in data set [1] (8 mM borax, pH adjusted from 7.2 to 6.2); 95 % syn in data set [1] (borate buffer (pH 7.2)); 55 % syn and 54 % syn in data set [1] (setting [4]). For the same compound, the Molar ellipticity ([θ]ext) at about 270 nm in data set [1] (borate buffer (pH 7.2)) came out at 1600 deg·cm2/dmol; in data set [1] (phosphate buffer (pH 7.2)) it was 5100 deg·cm2/dmol. Also, the “[θ]max” value turned out to be 1600 deg cm^2dmol^−1 in data set [1] (borate buffer (pH 7.2)) and 5100 deg cm^2dmol^−1 in data set [1] (phosphate buffer (pH 7.2)). The “change of CD peak at about 270 nm / orientation upon addition of borax” value in data set [1] (pH 6.0) is “almost no peak decreases were observed”; in data set [1] (pH 8.8) it was “syn orientation is induced more effectively at pH 8.8”. For the same compound, the “Δ[θ]ext” value in data set [1] stood at 3500. In addition, the “association constant with boric acid” value turned out to be 49 M⁻¹ in data set [2] (boric acid (B(OH)3) added instead of borax); 75 M⁻¹ in data set [2] (pH 7.2, borax added, borax supposed to give 4 equivalents of boric acid); 600 M⁻¹ in data set [2] (pH 8.8, borax added).
“Poly(N^γ-(5′-deoxy-5′-uridyl)-L-glutamine) [PRNA1]”: the “amount of xylose giving perfect 1:1 complex formation” value in data set [3] (borax 6 times the amount of PRNA1) is on record as “about 20 times that of the PRNA1”. In addition, the “absorbance at 260 nm after addition of D(+)-xylose” value in data set [3] (borax 6 times the amount of PRNA1, decrease from 1.03) is 0.88. Also, the “effect of D(+)-glucose in lieu of D(+)-xylose” value in data set [3] (borax-containing phosphate buffer with poly(A)) is reported as “the complex is formed”. Besides, the “absorbance at 260 nm after addition of poly(A)” value in data set [3] (borax-free phosphate buffer pH 7.2, decrease from 1) turned out to be 0.88. For the same compound, the “amount of borax restoring the original absorbance (complete dissociation of complex)” value in data set [3] (phosphate buffer with PRNA1 and poly(A)) is “about 3 times the amount of the PRNA1”.
In the case of `Nc1ccn([C@@H]2O[C@H](CO)[C@@H](O)[C@H]2O)c(=O)n1` [Cytidine (Cyd), Cytidine, reference compound], the “[θ]max” value is recorded as 12200 deg cm^2dmol^−1 in data set [1] (borate buffer (pH 7.2)) and 14200 deg cm^2dmol^−1 in data set [1] (phosphate buffer (pH 7.2)).
For “Boc-isoGln(5′U)-isoGln(5′U)-isoGln(5′U)-OH [U-U-U]”, in data set [1], the “change of [θ]ext / CD peak” value was “[θ]ext decreases”.
For `O=c1ccn([C@@H]2O[C@H](CO)[C@@H](O)[C@H]2O)c(=O)[nH]1` [Urd, uridine, reference compound], in data set [1] (borate buffer (pH 7.2)), the “[θ]max” value was found to be 7400 deg cm^2dmol^−1 and the “proportion of syn orientation of the base moiety” value stood at 27 % syn. For the same compound, in data set [1] (phosphate buffer (pH 7.2)), the “[θ]max” value came to 9700 deg cm^2dmol^−1 and the “proportion of anti orientation of the base moiety” value is reported as 100 % anti.
Take Boc-AEG(5′U)-OH: the “proportion of syn orientation of the base moiety” value in data set [1] (5.5 mM borax added, phosphate buffer pH 7.2) worked out at 76 % syn; in data set [1] (5.5 mM borax, pH adjusted from 7.2 to 6.2) it was 41 % syn; in data set [1] (borate buffer (pH 7.2)), 64 % syn; in data set [1] (setting [4]) it was 39 % syn. Also, the figures for the “change of CD peak at about 270 nm / orientation upon addition of borax” value in data set [1] (pH 6.0) and in data set [1] (pH 8.8) were “almost no decrease in the relevant peak was observed” and “very efficient increase in syn orientation proportion”, respectively.
Consider Boc-isoGln(5′U)-isoGln(5′I)-OH [U-I], for which the Molar ellipticity ([θ]ext) at about 270 nm in data set [1] (phosphate buffer (pH 7.2)) was 6600 deg·cm2/dmol. Further, the “Δ[θ]ext” value in data set [1] is 3300.
Turning to Boc-isoGln(5′I)-isoGln(5′U)-OH [I-U], the Molar ellipticity ([θ]ext) at about 270 nm in data set [1] (borate buffer (pH 7.2)) came to 1400 deg·cm2/dmol; in data set [1] (phosphate buffer (pH 7.2)) it was 4800 deg·cm2/dmol. In addition, the “Δ[θ]ext” value in data set [1] is on record as 3400.
In the case of `CC(C)(C)OC(=O)N[C@@H](CCC(=O)NC[C@H]1O[C@@H](n2ccc(=O)[nH]c2=O)[C@H](O)[C@@H]1O)C(=O)O` [Boc-isoGln(5′U)-OH, N^α-t-butoxycarbonyl-N^5-(5′-deoxy-5′-uridyl)-L-isoglutamine], in data set [1] (borate buffer (pH 7.2)), the “proportion of syn orientation of the base moiety” value is reported as 56 % syn.
On to “Boc-isoGln(5′U)-isoGln(5′I)-isoGln(5′U)-OH [U-I-U]”, for which the “change of [θ]ext / CD peak” value in data set [1] was “[θ]ext decreases”.
For “NH2-UUUUUUUUTTTT-3′: chimeric molecule dodecamer, PRNA(Urd) octamer amide-bonded to thymidine tetramer”, the “change of [θ]ext / CD peak” value in data set [1] was “[θ]ext decreased”. Moreover, the Tm is less than 0 °C with d(A)12 (binding target d(A)12, 20 mM borax); less than 0 °C in the data set with d(A)12 (binding target d(A)12, 20 mM borax, listed as (U)8DNA(T)4); 42.5 °C in the data set with d(A)12 (binding target d(A)12, no additive, phosphate buffer pH 7.2). The “Tm gain of the complex over the DNA-DNA complex” value in the data set with d(A)12 (no additive) is 19.3 °C.
On to `NC[C@H]1O[C@@H](n2ccc(N)nc2=O)[C@H](O)[C@@H]1O` [5′-NH2-Cyd, 5′-amino-5′-deoxycytidine], for which the “[θ]max” value is 4900 deg cm^2dmol^−1 in data set [1] (borate buffer (pH 7.2)) and 8400 deg cm^2dmol^−1 in data set [1] (phosphate buffer (pH 7.2)).
